Marks after values point to notes of the source that are not given here.
System: human colon cancer Ls174t
Experiment: Efficacy on human colon cancer Ls174t transplanted in nude mice
Details: for Weight after Removing Tumor, d0 / TV x ± SD, d0: d0 baseline; for RTV x ± SD / T/C / TV x ± SD, dn: dn 14 days; for Weight after Removing Tumor, dn: dn 14 days after first administration
Description: BALB/cA-nude mice, ♀, 5-6 weeks-old, available from Shanghai Slaccas experimental animals limited liability company. […] Rearing environment: SPF grade.
After one week adaption, the experimental animals were subcutaneously inoculated with human colon cancer Ls174t tumor tissues. When the tumors grew to 100-300 mm^3, the animals were randomly divided into several groups in day 0 (d0). […] The volumes of tumors and the weights of mice were measured 2-3 times every week, the data of which were recorded. The equation for the calculation of volume of tumors (V) is: V=½×a×b^2 wherein a and b represent length and width, respectively.

[1] = 50 mg/kg p.o. once daily d0-d13
[2] = 100 mg/kg p.o. once daily d0-d13
[3] = 200 mg/kg p.o. once daily d0-d13

Which results are given for `N#CC1(c2ccc(NC(=O)c3cccnc3NCc3ccncc3)cc2)CCCC1` [Mesylate of compound A]?
Weight after Removing Tumor, d0 [1]: 19.1 g; RTV x ± SD [1]: 9.8 ± 3.0; T/C [1]: 79.7%; TV x ± SD, dn [1]: 1452 ± 149; Weight after Removing Tumor, dn [1]: 16.8 g; TV x ± SD, d0 (50 mg/kg p.o.): 155 ± 33; Weight after Removing Tumor, d0 [2]: 19.0 g; RTV x ± SD [2]: 6.4 ± 3.1; T/C [2]: 52.0^a %; TV x ± SD, dn [2]: 931 ± 196; Weight after Removing Tumor, dn [2]: 18.5 g; TV x ± SD, d0 (100 mg/kg p.o.): 161 ± 44; Weight after Removing Tumor, d0 [3]: 18.6 g; RTV x ± SD [3]: 2.0 ± 0.9; TV x ± SD, dn [3]: 310 ± 114; Weight after Removing Tumor, dn [3]: 18.5 g; T/C (200 mg/kg p.o. once daily d0-d13, listed as Mesylate of Compound A): 16.3^a %; T/C (200 mg/kg p.o. once daily d0-d13, listed as mesylate of compound A): 16.3%; TV x ± SD, d0 (200 mg/kg p.o.): 158 ± 20; efficacy at 400 mg/kg (400 mg/kg): did not increase significantly; ED50 (Mus musculus, LS174T, read-out: ED50 on colon cancer Ls174t): 97.2 mg/kg; tolerance at 400 mg/kg (mouse, in vivo): could be tolerated by mice
